According to patent publication US7932384B2, “Reverse-turn mimetics and method relating thereto” (Choongwae Pharma Corporation, priority 2001, dated 2011):
Values after ≈ are worked out from the molar mass of the structure shown.

System: 293
Experiment: Sulforhodamine B (SRB) assay, 293
Format: cell-based
Settings: Homo sapiens, HEK293; Renal, 293, 48 hours
Method: Growth inhibitory effect of Compound A on the cells listed below was measured by the sulforhodamine B assay. SW480 cells in 100 μl media were plated in each well of 96-well plate and allowed to attach for 24 hours. Compound A was added to the wells to produce the desired final concentrations, and the plates were incubated at 37° C. for 48 hours. The cells were then fixed by gentle addition of 100 μl of cold (4° C.) 10% trichloroacetic acid to each well, followed by incubation at 4° C. for 1 hour. Plates were washed with deionized water five times and allowed to air dry. The cells were then stained by addition of 100 μl SRB solution (0.4% SRB(w/v) in 1% acetic acid (v/v)) to wells for 15 min. After staining, the plates were quickly washed five times with 1% acetic acid to remove any unbound dye, and allowed to air dry. Bound dye was solubilized with 10 mmol/L Tris base (pH 10.5) prior to reading the plates. The optical density (OD) was read on a plate reader at a wavelength of 515 nm with Molecular Device. Inhibition of growth was expressed as relative viability (% of control) and GI50 was calculated from concentration-response curves after log/probit transformation.
The values in Table 6 are in μg/ml.

Row | Structure (SMILES) | GI50 [µg/mL]
1 | O=c1[nH]cc(F)c(=O)[nH]1 [Compound 5-FU, 5-fluorouracil, reference compound] | 2.02 (≈ 15.5 µM)

System: min mouse
Experiment: Min mouse model (polyp number)
Format: in vivo
Settings: 160 ppm
Method: Selected compounds of the present invention (Compound B and Compound C) were evaluated in the min mouse model to evaluate their efficacy as anti-cancer agents.
The min mouse model is a widely used model to test for this type of efficacy. The numbers of polyp formed in small intestine and colon of these mice after various treatments were measured (Table 7).

Row | Structure (SMILES) | Polyp Number (Mean ± S.D.) Colon | Polyp Number (Mean ± S.D.) Small Intestine | Polyp Number (Mean ± S.D.) Total
2 | CC1=C(CC(=O)O)c2cc(F)ccc2/C1=C\c1ccc([S+](C)[O-])cc1 (stereo not shown) [Sulindac] | 0.5 ± 0.5 | 48.0 ± 20.7 | 48.5 ± 20.9

Same assay, conditions: 160 ppm, total polyp number

Row | Structure (SMILES) | % Inhibition vs. VH [%]
3 | CC1=C(CC(=O)O)c2cc(F)ccc2/C1=C\c1ccc([S+](C)[O-])cc1 (stereo not shown) [Sulindac] | 28

Same assay, conditions: 300 mpk

Row | Structure (SMILES) | Polyp Number (Mean ± S.D.) Colon | Polyp Number (Mean ± S.D.) Small Intestine | Polyp Number (Mean ± S.D.) Total
4 | CN1CC(=O)N2[C@@H](Cc3ccc(O)cc3)C(=O)N(Cc3cccc4cccnc34)C[C@@H]2N1C(=O)NCc1ccccc1 [Compound B] | 1.4 ± 0.9 | 45.2 ± 22.1 | 46.8 ± 17.0

Same assay, conditions: 300 mpk, total polyp number

Row | Structure (SMILES) | % Inhibition vs. VH [%]
5 | CN1CC(=O)N2[C@@H](Cc3ccc(O)cc3)C(=O)N(Cc3cccc4cccnc34)C[C@@H]2N1C(=O)NCc1ccccc1 [Compound B] | 31

System: surviving protein
Experiment: Western blot analysis of survivin protein
Format: cell-based
Settings: 5 μM

Row | Structure (SMILES) | amount of survivin protein (Western blot)
6 | O=c1[nH]cc(F)c(=O)[nH]1 [Compound 5-FU, 5-fluorouracil, reference compound] | reduced the amount of the surviving protein

System: not listed separately
Experiment: physchem
Settings: 37 °C, pH 1.2, simulated gastric fluid, thermodynamic from solid, Solubility JP1 (pH 1.2), 0 hr

Row | Structure (SMILES) | solubility [µg/mL]
7 | C=CCN1CC(=O)N2[C@@H](Cc3ccc(OP(=O)([O-])[O-])cc3)C(=O)N(Cc3ccc(Cl)c4cccnc34)C[C@@H]2N1C(=O)NCc1ccccc1.[Na+].[Na+] [Compound 7] | 309
8 | CN(C)c1cc(F)c(F)cc1CN1C[C@H]2N(C(=O)CN(C)N2C(=O)NCc2ccccc2)[C@@H](Cc2ccc(OP(=O)([O-])[O-])cc2)C1=O.[Na+].[Na+] [Compound 10] | 2290
9 | C=CCN1CC(=O)N2[C@@H](Cc3ccc(OP(=O)([O-])[O-])cc3)C(=O)N(Cc3cccc4cccnc34)C[C@@H]2N1C(=O)NCc1ccccc1.[Na+].[Na+] [Compound 6] | 1450

Same assay, conditions: 37 °C, pH 1.2, simulated gastric fluid, thermodynamic from solid, Solubility JP1 (pH 1.2), 2 hr

Row | Structure (SMILES) | solubility [µg/mL]
10 | C=CCN1CC(=O)N2[C@@H](Cc3ccc(OP(=O)([O-])[O-])cc3)C(=O)N(Cc3ccc(Cl)c4cccnc34)C[C@@H]2N1C(=O)NCc1ccccc1.[Na+].[Na+] [Compound 7] | 446
11 | CN(C)c1cc(F)c(F)cc1CN1C[C@H]2N(C(=O)CN(C)N2C(=O)NCc2ccccc2)[C@@H](Cc2ccc(OP(=O)([O-])[O-])cc2)C1=O.[Na+].[Na+] [Compound 10] | 2270
12 | C=CCN1CC(=O)N2[C@@H](Cc3ccc(OP(=O)([O-])[O-])cc3)C(=O)N(Cc3cccc4cccnc34)C[C@@H]2N1C(=O)NCc1ccccc1.[Na+].[Na+] [Compound 6] | 1720

Same assay, conditions: 37 °C, pH 1.2, simulated gastric fluid, thermodynamic from solid, Solubility JP1 (pH 1.2), 20 hr

Row | Structure (SMILES) | solubility [µg/mL]
13 | C=CCN1CC(=O)N2[C@@H](Cc3ccc(OP(=O)([O-])[O-])cc3)C(=O)N(Cc3ccc(Cl)c4cccnc34)C[C@@H]2N1C(=O)NCc1ccccc1.[Na+].[Na+] [Compound 7] | 521
14 | CN(C)c1cc(F)c(F)cc1CN1C[C@H]2N(C(=O)CN(C)N2C(=O)NCc2ccccc2)[C@@H](Cc2ccc(OP(=O)([O-])[O-])cc2)C1=O.[Na+].[Na+] [Compound 10] | 2330
15 | C=CCN1CC(=O)N2[C@@H](Cc3ccc(OP(=O)([O-])[O-])cc3)C(=O)N(Cc3cccc4cccnc34)C[C@@H]2N1C(=O)NCc1ccccc1.[Na+].[Na+] [Compound 6] | 1790

Same assay, conditions: 37 °C, pH 6.8, fassgf or other biorelevant, thermodynamic from solid, Solubility JP2 (pH 6.8), 0 hr

Row | Structure (SMILES) | solubility [µg/mL]
16 | C=CCN1CC(=O)N2[C@@H](Cc3ccc(OP(=O)([O-])[O-])cc3)C(=O)N(Cc3ccc(Cl)c4cccnc34)C[C@@H]2N1C(=O)NCc1ccccc1.[Na+].[Na+] [Compound 7] | 2140
17 | CN(C)c1cc(F)c(F)cc1CN1C[C@H]2N(C(=O)CN(C)N2C(=O)NCc2ccccc2)[C@@H](Cc2ccc(OP(=O)([O-])[O-])cc2)C1=O.[Na+].[Na+] [Compound 10] | 2030
18 | C=CCN1CC(=O)N2[C@@H](Cc3ccc(OP(=O)([O-])[O-])cc3)C(=O)N(Cc3cccc4cccnc34)C[C@@H]2N1C(=O)NCc1ccccc1.[Na+].[Na+] [Compound 6] | 1830

Same assay, conditions: 37 °C, pH 6.8, fassgf or other biorelevant, thermodynamic from solid, Solubility JP2 (pH 6.8), 2 hr

Row | Structure (SMILES) | solubility [µg/mL]
19 | C=CCN1CC(=O)N2[C@@H](Cc3ccc(OP(=O)([O-])[O-])cc3)C(=O)N(Cc3ccc(Cl)c4cccnc34)C[C@@H]2N1C(=O)NCc1ccccc1.[Na+].[Na+] [Compound 7] | 2220
20 | CN(C)c1cc(F)c(F)cc1CN1C[C@H]2N(C(=O)CN(C)N2C(=O)NCc2ccccc2)[C@@H](Cc2ccc(OP(=O)([O-])[O-])cc2)C1=O.[Na+].[Na+] [Compound 10] | 2060
21 | C=CCN1CC(=O)N2[C@@H](Cc3ccc(OP(=O)([O-])[O-])cc3)C(=O)N(Cc3cccc4cccnc34)C[C@@H]2N1C(=O)NCc1ccccc1.[Na+].[Na+] [Compound 6] | 1860

Same assay, conditions: 37 °C, pH 6.8, fassgf or other biorelevant, thermodynamic from solid, Solubility JP2 (pH 6.8), 20 hr

Row | Structure (SMILES) | solubility [µg/mL]
22 | C=CCN1CC(=O)N2[C@@H](Cc3ccc(OP(=O)([O-])[O-])cc3)C(=O)N(Cc3ccc(Cl)c4cccnc34)C[C@@H]2N1C(=O)NCc1ccccc1.[Na+].[Na+] [Compound 7] | 2240
23 | CN(C)c1cc(F)c(F)cc1CN1C[C@H]2N(C(=O)CN(C)N2C(=O)NCc2ccccc2)[C@@H](Cc2ccc(OP(=O)([O-])[O-])cc2)C1=O.[Na+].[Na+] [Compound 10] | 2030
24 | C=CCN1CC(=O)N2[C@@H](Cc3ccc(OP(=O)([O-])[O-])cc3)C(=O)N(Cc3cccc4cccnc34)C[C@@H]2N1C(=O)NCc1ccccc1.[Na+].[Na+] [Compound 6] | 1870
